Like-named read-outs stand apart in the source and are kept apart here.
Columns and labels:
patients with MBC = conditions: single agent, cited from earlier work
[1] = test system: patients with HER2-positive MBC
From the text: Patients with confirmed HER2-positive MBC whose disease had progressed on multiple lines of therapy, including HER2-directed therapy, were eligible.
Preliminary data in 112 evaluable patients are also available from the Phase II study.

[2] = test system: patients with HER2-positive MBC; remark: listed apart in the source
patients with cancer [3] = assay: Completed Phase Ib combination studies of pertuzumab, LVEF; assay type: in vivo, human; conditions: 2/35 patients
From the text: Grade 3-4 adverse events have been less frequently reported, with the more frequent events being Grade 3 diarrhea (5%), Grade 3 vomiting (2%), and Grade 3 nausea (<1%). Asymptomatic decreases in LVEF have been reported as adverse events in 14% of patients and were mainly (−70%) Grade 1 events.

patients with cancer [4] = assay: Pooled Phase II trials of single-agent pertuzumab, safety; assay type: in vivo, human
patients with cancer [5] = assay: Pertuzumab across all studies, symptomatic cardiac failure; assay type: in vivo, human; conditions: 4 of 842 patients across all studies
From the text: Two of these patients had MBC and had received prior anthracyclines and two patients had ovarian cancer patients, one of whom had cardiac risk factors (hypertension/hyperlipidemia).

[6] = Pertuzumab PK studies (Phase Ia and II); assay type: in vivo, human
From the text: A two-compartment model adequately described the concentration-time data with a terminal half-life of approximately 17 days for a typical patient.
Population PK modeling of data from Phase Ia and II studies supports the continued use of fixed non-weight based dosing in female patients.

[7] = subgroup with at least 6 months of follow-up or discontinued (n=76)
[8] = pooled Phase II single agent (n=353), generally Grade 1-2

For `CC(=O)O[C@H]1C(=O)[C@@]2(C)[C@H]([C@H](OC(=O)c3ccccc3)[C@]3(O)C[C@H](OC(=O)[C@H](O)[C@@H](NC(=O)c4ccccc4)c4ccccc4)C(C)=C1C3(C)C)[C@]1(OC(C)=O)CO[C@@H]1C[C@@H]2O` (relative stereo) [paclitaxel, β-(benzoylamino)-α-hydroxy-,6,12b-bis (acetyloxy)-12-(benzoyloxy)-2a,3,4,4a,5,6,9,10,11,12,12a,12b-dodecahydro-4,11-dihydroxy-4a,8,13,13-tetramethyl-5-oxo-7,11-methano-1H-cyclodeca(3,4)benz(1,2-b) oxet-9-ylester,(2aR-(2a-α,4-β,4a-β,6-β,9-α (α-R*,β-S*),11-α,12-α,12a-α,2b-α))-benzenepropanoic acid], which response rates (patients with MBC; first-line treatment of MBC) is on record?
Its response rates is 29-63%.

What about the response rates (patients with MBC; second-line treatment of MBC) of the same compound?
The response rates was 21-56%.

Which “objective responses confirmed by follow-up imaging” value ([1]; 107 efficacy-evaluable patients, 29 responses) does the source give for T-DM1 here?
The value was 27.1%.

And the “objective responses (CRs and PRs)” value ([1]; 107 efficacy-evaluable patients, 42 responses)?
Its value is 39.3%.

And the response rate [1, 7]?
The response rate was 43.4%.

What about the “response rate confirmed by follow-up imaging” value [1, 7] of the same compound?
Its value is 38.2%.

What about the responses ([2]; 1.2 mg/kg weekly (n=3)) of the same compound?
Its responses is “three”.

And the responses ([2]; 1.6 mg/kg weekly (n=3))?
Its responses is “two”.

And the responses ([2]; 2.0 mg/kg weekly (n=3))?
Its responses is “two”.

And the “ORR in patients with measurable disease and confirmed HER2 status by central review” value ([2]; every 3-week schedule, 5/11)?
Its value is 46%.

And the “6-month clinical benefit rate (CR+PR+SD>6 months)” value ([2]; every 3-week schedule, 13/24)?
The value was 54%.

And the “objective response rate (ORR)” value ([2]; every-3-week schedule, 24 patients)?
The value was 21%.

What about the “responses confirmed according to RECIST” value ([2]; every-3-week schedule, of six responses) of the same compound?
Its value is “five”.

And the “ORR in patients with measurable disease and confirmed HER2 status by central review” value ([2]; weekly schedule, 7/15)?
Its value is 47%.

And the “6-month clinical benefit rate (CR+PR+SD>6 months)” value ([2]; weekly schedule, 18/28)?
Its value is 64%.

What about the “objective response rate (ORR)” value ([2]; weekly schedule, 28 patients) of the same compound?
Its value is 54%.

What about the “responses confirmed according to RECIST” value ([2]; weekly schedule, of 15 responses) of the same compound?
Its value is 13.

Which “LVEF declines of ≧10% to <50%” value (patients with cancer [3]) does the source give for “pertuzumab: humanized monoclonal antibody that binds to extracellular domain II of HER2 and blocks its ability to dimerize with other HER receptors” here?
Its value is 6%.

What about the “asymptomatic decreases in LVEF reported as adverse events” value (patients with cancer [4]; % of patients) of the same compound?
The value was 14%.

And the “LVEF declines of ≧10% to <50%” value (patients with cancer [4]; completed Phase II single-agent studies, 21/302 patients)?
Its value is 7%.

What about the “Grade 3 diarrhea” value (patients with cancer [4]; pooled Phase II single agent) of the same compound?
The value was 5%.

What about the “Grade 3 nausea” value (patients with cancer [4]; pooled Phase II single agent) of the same compound?
Its value is under 1%.

What about the “Grade 3 vomiting” value (patients with cancer [4]; pooled Phase II single agent) of the same compound?
The value was 2%.

And the abdominal pain (patients with cancer [4]; [8])?
Its abdominal pain is 24%.

What about the diarrhea (patients with cancer [4]; [8]) of the same compound?
Its diarrhea is 58%.

And the fatigue (patients with cancer [4]; [8])?
The fatigue was 32%.

What about the nausea (patients with cancer [4]; [8]) of the same compound?
Its nausea is 31%.

What about the rash (patients with cancer [4]; [8]) of the same compound?
Its rash is 17%.

What about the vomiting (patients with cancer [4]; [8]) of the same compound?
Its vomiting is 22%.

And the tolerability (patients with cancer [4]; single agent, five Phase II studies)?
Its tolerability is “well tolerated”.

What about the “symptomatic cardiac failure events” value (patients with cancer [5]) of the same compound?
Its value is 0.5%.

What about the “attaining steady-state trough and peak concentrations” value ([6]; loading dose 840 mg followed by 420 mg every 3 weeks) of the same compound?
The value was “by the second cycle”.

And the terminal half-life ([6]; two-compartment model, typical patient)?
The terminal half-life was “approximately 17 days”.

Reference: patent US20140044709A1, “TREATMENT OF HER2-POSITIVE CANCER WITH PACLITAXEL AND TRASTUZUMAB-MCC-DM1” (priority 2010, published 2014)
